For 13 molecules, mutagenic call results are on record in PubChem BioAssay AID1259407 (Chemical Carcinogenesis Research Information System (CCRIS), 2018).

This data set deals with CCRIS mutagenicity, Ames/micronucleus/aberration tests. Nature of the data set: CCRIS mutagenicity studies.
[1] abbreviates: End Point: IN VITRO CHROMOSOMAL ABERRATIONS, Test System: CHINESE HAMSTER OVARY CELLS, Metabolic Activation: NONE.
[2] abbreviates: End Point: IN VITRO CHROMOSOMAL ABERRATIONS, Test System: CHINESE HAMSTER OVARY CELLS, Metabolic Activation: RAT, LIVER, S-9, AROCLOR 1254.
Where [3] appears, read: Test System: AMES SALMONELLA TYPHIMURIUM, Strain/Indicator: TA98, Metabolic Activation: NONE, Method: PREINCUBATION
Setting [4] is: Test System: AMES SALMONELLA TYPHIMURIUM, Strain/Indicator: TA100, Metabolic Activation: NONE, Method: PREINCUBATION
Setting [5] is: Test System: AMES SALMONELLA TYPHIMURIUM, Strain/Indicator: TA1535, Metabolic Activation: NONE, Method: PREINCUBATION
The mark [6] stands for this setting: Test System: AMES SALMONELLA TYPHIMURIUM, Strain/Indicator: TA1537, Metabolic Activation: NONE, Method: PREINCUBATION
Where [7] appears, read: Test System: AMES SALMONELLA TYPHIMURIUM, Strain/Indicator: TA100, Metabolic Activation: RAT, LIVER, S-9, PHENOBARBITAL AND 5,6-BENZOFLAVONE, Method: PREINCUBATION
Where [8] appears, read: Test System: AMES SALMONELLA TYPHIMURIUM, Strain/Indicator: TA1535, Metabolic Activation: NONE, Method: STANDARD PLATE.
[9] abbreviates: Test System: AMES SALMONELLA TYPHIMURIUM, Strain/Indicator: TA98, Metabolic Activation: NONE, Method: STANDARD PLATE.
Where [10] appears, read: Test System: AMES SALMONELLA TYPHIMURIUM, Strain/Indicator: TA100, Metabolic Activation: NONE, Method: STANDARD PLATE.
The mark [11] stands for this setting: Test System: AMES SALMONELLA TYPHIMURIUM, Strain/Indicator: TA100, Metabolic Activation: RAT, LIVER, S-9, AROCLOR 1254, Method: STANDARD PLATE.

Active and inactive are the calls of the source. No rule for the calls is given here.

Regarding `CC1=CC[C@H]2C(C)=CC[C@@H](C(C)C)[C@@H]2C1`, the mutagenic call runs as follows: under setting [1], “inactive; negative”; under setting [2], “inactive; negative”; (Test System: AMES SALMONELLA TYPHIMURIUM, Strain/Indicator: TA98, Metabolic Activation: HAMSTER, LIVER, S-9, AROCLOR 1254, Method: PREINCUBATION) “inactive; negative”; under setting [3], “inactive; negative”; (Test System: AMES SALMONELLA TYPHIMURIUM, Strain/Indicator: TA98, Metabolic Activation: RAT, LIVER, S-9, AROCLOR 1254, Method: PREINCUBATION) “inactive; negative”; (Test System: AMES SALMONELLA TYPHIMURIUM, Strain/Indicator: TA100, Metabolic Activation: HAMSTER, LIVER, S-9, AROCLOR 1254, Method: PREINCUBATION) “inactive; negative”. The mutagenic call is “inactive; negative” under setting [4]; “inactive; negative” (Test System: AMES SALMONELLA TYPHIMURIUM, Strain/Indicator: TA100, Metabolic Activation: RAT, LIVER, S-9, AROCLOR 1254, Method: PREINCUBATION); “inactive; negative” (Test System: AMES SALMONELLA TYPHIMURIUM, Strain/Indicator: TA1535, Metabolic Activation: HAMSTER, LIVER, S-9, AROCLOR 1254, Method: PREINCUBATION); “inactive; negative” under setting [5]; “inactive; negative” (Test System: AMES SALMONELLA TYPHIMURIUM, Strain/Indicator: TA1535, Metabolic Activation: RAT, LIVER, S-9, AROCLOR 1254, Method: PREINCUBATION); “inactive; negative” (Test System: AMES SALMONELLA TYPHIMURIUM, Strain/Indicator: TA1537, Metabolic Activation: HAMSTER, LIVER, S-9, AROCLOR 1254, Method: PREINCUBATION). The mutagenic call under setting [6] was “inactive; negative” and the mutagenic call (Test System: AMES SALMONELLA TYPHIMURIUM, Strain/Indicator: TA1537, Metabolic Activation: RAT, LIVER, S-9, AROCLOR 1254, Method: PREINCUBATION) was “inactive; negative”.

Turning to `Cc1cc2c3c(ccc2c2ccccc12)C(O)C(O)[C@@H]1O[C@@H]31` (stereo partly drawn), the mutagenic call under setting [4] was “inactive; negative”.

As to `OCC(CO)(CBr)CBr`, the mutagenic call by setting is: under setting [1], “inactive; negative”; under setting [2], “active; positive”; (Test System: AMES SALMONELLA TYPHIMURIUM, Strain/Indicator: TA98, Metabolic Activation: HAMSTER, LIVER, S-9, AROCLOR 1254 (10%), Method: PREINCUBATION) “inactive; negative”; (Test System: AMES SALMONELLA TYPHIMURIUM, Strain/Indicator: TA98, Metabolic Activation: HAMSTER, LIVER, S-9, AROCLOR 1254 (30%), Method: PREINCUBATION) “inactive; negative”; under setting [3], “inactive; negative”; (Test System: AMES SALMONELLA TYPHIMURIUM, Strain/Indicator: TA98, Metabolic Activation: RAT, LIVER, S-9, AROCLOR 1254 (10%), Method: PREINCUBATION) “inactive; negative”. The mutagenic call by setting is: (Test System: AMES SALMONELLA TYPHIMURIUM, Strain/Indicator: TA98, Metabolic Activation: RAT, LIVER, S-9, AROCLOR 1254 (30%), Method: PREINCUBATION) “inactive; negative”; (Test System: AMES SALMONELLA TYPHIMURIUM, Strain/Indicator: TA100, Metabolic Activation: HAMSTER, LIVER, S-9, AROCLOR 1254 (10%), Method: PREINCUBATION) “inactive; negative”; (Test System: AMES SALMONELLA TYPHIMURIUM, Strain/Indicator: TA100, Metabolic Activation: HAMSTER, LIVER, S-9, AROCLOR 1254 (30%), Method: PREINCUBATION) “active; positive”; under setting [4], “inactive; negative”; (Test System: AMES SALMONELLA TYPHIMURIUM, Strain/Indicator: TA100, Metabolic Activation: RAT, LIVER, S-9, AROCLOR 1254 (10%), Method: PREINCUBATION) “inactive; negative”; (Test System: AMES SALMONELLA TYPHIMURIUM, Strain/Indicator: TA100, Metabolic Activation: RAT, LIVER, S-9, AROCLOR 1254 (30%), Method: PREINCUBATION) “inactive; negative”. The mutagenic call is “inactive; negative” (Test System: AMES SALMONELLA TYPHIMURIUM, Strain/Indicator: TA1535, Metabolic Activation: HAMSTER, LIVER, S-9, AROCLOR 1254 (10%), Method: PREINCUBATION); “inactive; negative” under setting [5]; “inactive; negative” (Test System: AMES SALMONELLA TYPHIMURIUM, Strain/Indicator: TA1535, Metabolic Activation: RAT, LIVER, S-9, AROCLOR 1254 (10%), Method: PREINCUBATION); “inactive; negative” (Test System: AMES SALMONELLA TYPHIMURIUM, Strain/Indicator: TA1537, Metabolic Activation: HAMSTER, LIVER, S-9, AROCLOR 1254 (10%), Method: PREINCUBATION); “inactive; negative” under setting [6]; “inactive; negative” (Test System: AMES SALMONELLA TYPHIMURIUM, Strain/Indicator: TA1537, Metabolic Activation: RAT, LIVER, S-9, AROCLOR 1254 (10%), Method: PREINCUBATION).

As for `Clc1ccnc2ccccc12`, the mutagenic call under setting [7] is “active; positive”.

Take `N[C@@H](CS)C(=O)OC(=O)NCCCl`: the mutagenic call under setting [8] is “active; positive”.

For `Cc1ccc2nc3c(ccc4ccccc43)cc2c1`, the mutagenic call by setting is: (Test System: AMES SALMONELLA TYPHIMURIUM, Strain/Indicator: TA97A, Metabolic Activation: NONE, Method: PREINCUBATION) “inactive; negative”; under setting [3], “inactive; negative”; under setting [4], “active; positive”; (Test System: AMES SALMONELLA TYPHIMURIUM, Strain/Indicator: TA102, Metabolic Activation: NONE, Method: PREINCUBATION) “active; positive”.

As for `O=C(Nc1ccc(F)cc1)c1csc([N+](=O)[O-])c1`, the mutagenic call was “active; positive” under setting [9] and “active; positive” under setting [10].

Consider `c1cc(OCC2CO2)ccc1Cc1ccc(OCC2CO2)cc1` (stereo not drawn), for which the mutagenic call (End Point: In vitro micronucleus, Test System: HepG2 cells, Metabolic Activation: None) is “inactive; negative”.

In the case of `CC(=O)Nc1cccc(N)c1C(=O)O`, the mutagenic call under setting [3] was “inactive; negative”; the mutagenic call (Test System: AMES SALMONELLA TYPHIMURIUM, Strain/Indicator: TA98, Metabolic Activation: RAT, LIVER, S-9, PHENOBARBITAL AND 5,6-BENZOFLAVONE, Method: PREINCUBATION) was “active; positive”; the mutagenic call under setting [4] was “inactive; negative”; the mutagenic call under setting [7] was “inactive; negative”.

Turning to `Oc1cc2ccc3cccc4cc5c(c1-c1ccccc1-5)c2c34`, the mutagenic call under setting [11] was “inactive; negative”.

As for `CCN1CCN=N1`, the mutagenic call under setting [8] is “active; positive”.

For `CCOC(=O)c1cccc2cccnc12`, the mutagenic call is “inactive; negative” under setting [9]; “inactive; negative” (Test System: AMES SALMONELLA TYPHIMURIUM, Strain/Indicator: TA98, Metabolic Activation: RAT, LIVER, S-9, AROCLOR 1254, Method: STANDARD PLATE); “inactive; negative” under setting [10]; “inactive; negative” under setting [11]; “inactive; negative” under setting [8]; “inactive; negative” (Test System: AMES SALMONELLA TYPHIMURIUM, Strain/Indicator: TA1535, Metabolic Activation: RAT, LIVER, S-9, AROCLOR 1254, Method: STANDARD PLATE). The mutagenic call (Test System: AMES SALMONELLA TYPHIMURIUM, Strain/Indicator: TA1537, Metabolic Activation: NONE, Method: STANDARD PLATE) is “inactive; negative” and the mutagenic call (Test System: AMES SALMONELLA TYPHIMURIUM, Strain/Indicator: TA1537, Metabolic Activation: RAT, LIVER, S-9, AROCLOR 1254, Method: STANDARD PLATE) is “inactive; negative”.

On to `O=C(O)CN(CCN(CC(=O)O)Cc1ccccc1O)Cc1ccccc1O`, for which the mutagenic call reads like this: (Test System: Mouse lymphoma, Strain/Indicator: L5178Y (tk+/tk-), Metabolic Activation: None, Method: Suspension/plate) “active; positive”; (Test System: Mouse lymphoma, Strain/Indicator: L5178Y (tk+/tk-), Metabolic Activation: Rat, Liver, S-9, Aroclor 1254, Method: Suspension/plate) “active; positive”.
